# Measurements as given in US20240300980A1, “HETEROCYCLIC COMPOUNDS AS KRAS INHIBITOR, AND PREPARATION THEREFOR AND USE THEREOF IN TREATMENT” (SHANGHAI KECHOW PHARMA, INC., priority 2021, published 2024).
# pIC50: −log10 of the molar value.
# Test system: AGS cells (KRAS^G12D)
# Test: Detection of cell proliferation in vitro by MTT/MTS method (cell activity experiment)
# Assay type: cell-based
# Conditions: Homo sapiens, AGS, 72 h, AGS cells; MTT/MTS; 3 days of drug treatment; read-out: AGS IC50
# In short: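 KRAS G12D AGS cells seeded at 1000 per well, compound added 24 h later, 0.5% final DMSO. Viability read after 3 days of treatment by MTT (solubilised in DMSO) or MTS, 4 h, absorbance 490 nm. IC50 from dose–response curves versus DMSO control.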
row,pIC50,SMILES
1,7.89,"C#Cc1c(F)ccc2cc(O)cc(-c3ncc4c(N5CC6CCC5CN6)nc(OC[C@@]56CCCN5C[C@H](F)C6)nc4c3F)c12 (stereo partly drawn) [Example 46, 4-(4-(2,5-diazabicyclo [2.2.2]octan-2-yl)-8-fluoro-2-(((2R,7aS)-2-fluorotetrahydro-1H-pyrrolizin-7a(5H)-yl)methoxy)pyrido[4,3-d]pyrimidin-7-yl)-5-ethynyl-6-fluoronaphthalen-2-ol]"
2,5.78,"C#Cc1c(F)ccc2cc(O)cc(-c3ncc4c(N5CCC(N)C5)nc(OC[C@@]56CCCN5C[C@H](F)C6)nc4c3F)c12 (stereo partly drawn) [Example 51, 4-(4-(3-aminopyrrolidin-1-yl)-8-fluoro-2-(((2R, 7aS)-2-fluorotetrahydro-1H-pyrrolizin-7a(5H)-yl)methoxy)pyrido[4,3-d]pyrimidin-7-yl)-5-ethynyl-6-fluoronaphthalen-2-ol]"
3,< 5.60,"C#Cc1cccc2cc(O)cc(-c3ncc4c(N5CC6CCCNC6C5)nc(OC[C@@]56CCCN5C[C@H](F)C6)nc4c3F)c12 (stereo partly drawn) [Example 53, 5-ethynyl-4-(8-fluoro-2-(((2R,7aS)-2-fluorotetrahydro-1H-pyrrolizin-7a(5H)-yl)methoxy)-4-(octahydro-6H-pyrrolo[3,4-b]pyridin-6-yl)pyrido[4,3-d]pyrimidin-7-yl)naphthalen-2-ol]"
4,< 5.60,"C#Cc1c(F)ccc2cc(O)cc(-c3ncc4c(N5CC6CCNC6C5)nc(OC[C@@]56CCCN5C[C@H](F)C6)nc4c3F)c12 (stereo partly drawn) [Example 54, 5-ethynyl-6-fluoro-4-(8-fluoro-2-(((2R,7aS)-2-fluorotetrahydro-1H-pyrrolizin-7a(5H)-yl)methoxy)-4-(hexahydropyrrolo[3,4-b]pyrrol-5(1H)-yl)pyrido [4,3-d]pyrimidin-7-yl) naphthalen-2-ol]"
5,< 5.60,"C#Cc1c(F)ccc2cc(O)cc(-c3ncc4c(N5CCC6(CC5)CO[C@@H](C)[C@H]6N)nc(OC[C@@]56CCCN5C[C@H](F)C6)nc4c3F)c12 [Example 55, 4-(4-((3S,4S)-4-amino-3-methyl-2-oxa-8-azaspiro[4.5]decan-8-yl)-8-fluoro-2-(((2R, 7aS)-2-fluorotetrahydro-1H-pyrrolizin-7a(5H)-yl)methoxy)pyrido[4,3-d]pyrimidin-7-yl)-5-ethynyl-6-fluoronaphthalen-2-ol]"
6,< 5.60,"C#Cc1cccc2cc(O)cc(-c3ncc4c(N5CCC6(CC5)CO[C@@H](C)[C@H]6N)nc(OC[C@@]56CCCN5C[C@H](F)C6)nc4c3F)c12 [Example 56, 4-(4-((3S,4S)-4-amino-3-methyl-2-oxa-8-azaspiro[4.5]decan-8-yl)-8-fluoro-2-(((2R, 7aS)-2-fluorotetrahydro-1H-pyrrolizin-7a(5H)-yl)methoxy)pyrido[4,3-d]pyrimidin-7-yl)-5-ethynylnaphthalen-2-ol]"
7,< 5.60,"C[C@@H]1OCC2(CCN(c3nc(OC[C@@]45CCCN4C[C@H](F)C5)nc4c(F)c(-c5cc(O)cc6ccc(F)c(F)c56)ncc34)CC2)[C@@H]1N [Example 57, 4-(4-((3S,4S)-4-amino-3-methyl-2-oxa-8-azaspiro[4.5]decan-8-yl)-8-fluoro-2-(((2R, 7aS)-2-fluorotetrahydro-1H-pyrrolizin-7a(5H)-yl)methoxy)pyrido[4,3-d]pyrimidin-7-yl)-5,6-difluoronaphthalen-2-ol]"

# The remaining lines, values behind:
row,SMILES,pIC50
1,"C#Cc1c(F)ccc2cc(O)cc(-c3ncc4c(N5CC6CCCC(C5)N6)nc(OC[C@@]56CCCN5C[C@H](F)C6)nc4c3F)c12 [Example 43, 4-(4-(3,9-diazabicyclo [3.3.1]nonan-3-yl)-8-fluoro-2-(((2R,7aS)-2-fluorotetrahydro-1H-pyrrolizin-7a(5H)-yl)methoxy)pyrido[4,3-d]pyrimidin-7-yl)-5-ethynyl-6-fluoronaphthalen-2-ol]",7.51
2,"C#Cc1cccc2cc(O)cc(-c3ncc4c(N5CC6CCCC(C5)N6)nc(OC[C@@]56CCCN5C[C@H](F)C6)nc4c3F)c12 [Example 44, 4-(4-(3,9-diazabicyclo [3.3.1]nonan-3-yl)-8-fluoro-2-(((2R,7aS)-2-fluorotetrahydro-1H-pyrrolizin-7a(5H)-yl)methoxy)pyrido[4,3-d]pyrimidin-7-yl)-5-ethynylnaphthalen-2-ol]",7.33
3,"C#Cc1c(F)ccc2cc(O)cc(-c3ncc4c(N5CC6CC(C5)N6)nc(OC[C@@]56CCCN5C[C@H](F)C6)nc4c3F)c12 [Example 45, 4-(4-(3,6-diazabicyclo [3.1.1]heptan-3-yl)-8-fluoro-2-(((2R,7aS)-2-fluorotetrahydro-1H-pyrrolizin-7a(5H)-yl)methoxy)pyrido[4,3-d]pyrimidin-7-yl)-5-ethynyl-6-fluoronaphthalen-2-ol]",7.41
4,"C#Cc1c(F)ccc2cc(O)cc(-c3ncc4c(N5CCC6(CCCN6)CC5)nc(OC[C@@]56CCCN5C[C@H](F)C6)nc4c3F)c12 [Example 47, 5-ethynyl-6-fluoro-4-(8-fluoro-2-(((2R,7aS)-2-fluorotetrahydro-1H-pyrrolizin-7a(5H)-yl)methoxy)-4-(1,8-diazaspiro[4.5]decan-8-yl)pyrido[4,3-d]pyrimidin-7-yl) naphthalen-2-ol]",5.34
5,"C#Cc1cccc2cc(O)cc(-c3ncc4c(N5CCC6(CCCN6)CC5)nc(OC[C@@]56CCCN5C[C@H](F)C6)nc4c3F)c12 [Example 48, 5-ethynyl-4-(8-fluoro-2-(((2R,7aS)-2-fluorotetrahydro-1H-pyrrolizin-7a(5H)-yl)methoxy)-4-(1,8-diazaspiro[4.5]decan-8-yl)pyrido[4,3-d]pyrimidin-7-yl) naphthalen-2-ol]",5.29
6,"C#Cc1c(F)ccc2cc(O)cc(-c3ncc4c(N5CCC6(CCCS6)CC5)nc(OC[C@@]56CCCN5C[C@H](F)C6)nc4c3F)c12 [Example 49, 5-ethynyl-6-fluoro-4-(8-fluoro-2-(((2R, 7aS)-2-fluorotetrahydro-1H-pyrrolizin-7a(5H)-yl)methoxy)-4-(1-thia-8-azaspiro[4.5]decan-8-yl)pyrido[4,3-d]pyrimidin-7-yl)naphthalen-2-ol]",< 5.00
7,"C#Cc1c(F)ccc2cc(O)cc(-c3ncc4c(N5CCC6(CCCS6(=O)=O)CC5)nc(OC[C@@]56CCCN5C[C@H](F)C6)nc4c3F)c12 [Example 50, 8-(7-(8-ethynyl-7-fluoro-3-hydroxynaphthalen-1-yl)-8-fluoro-2-(((2R, 7aS)-2-fluorotetrahydro-1H-pyrrolizin-7a(5H)-yl)methoxy)pyrido[4,3-d]pyrimidin-4-yl)-1-thia-8-azaspiro[4.5] decane 1,1-dioxide]",< 5.00
8,"C#Cc1c(F)ccc2cc(O)cc(-c3ncc4c(N5CC6CCCNC6C5)nc(OC[C@@]56CCCN5C[C@H](F)C6)nc4c3F)c12 (stereo partly drawn) [Example 52, 5-ethynyl-6-fluoro-4-(8-fluoro-2-(((2R,7aS)-2-fluorotetrahydro-1H-pyrrolizin-7a(5H)-yl)methoxy)-4-(octahydro-6H-pyrrolo[3,4-b]pyridin-6-yl)pyrido[4,3-d]pyrimidin-7-yl)naphthalen-2-ol]",< 5.60
9,"C#Cc1c(F)ccc2cc(O)cc(-c3ncc4c(N5CCC(NC)C5)nc(OC[C@@]56CCCN5C[C@H](F)C6)nc4c3F)c12 (stereo partly drawn) [Example 58, 5-ethynyl-6-fluoro-4-(8-fluoro-2-(((2R,7aS)-2-fluorotetrahydro-1H-pyrrolizin-7a(5H)-yl)methoxy)-4-(3-(methylamino)pyrrolidin-1-yl)pyrido[4,3-d]pyrimidin-7-yl)naphthalen-2-ol]",< 5.60
10,"C#Cc1c(F)ccc2cc(O)cc(-c3ncc4c(N5CCC(NS(C)(=O)=O)C5)nc(OC[C@@]56CCCN5C[C@H](F)C6)nc4c3F)c12 (stereo partly drawn) [Example 59, N-(1-(7-(8-ethynyl-7-fluoro-3-hydroxynaphthalen-1-yl)-8-fluoro-2-(((2R, 7aS)-2-fluorotetrahydro-1H-pyrrolizin-7a(5H)-yl)methoxy)pyrido[4,3-d]pyrimidin-4-yl)pyrrolidin-3-yl) methanesulfonamide]",< 5.60
11,"C#Cc1c(F)ccc2cc(O)cc(-c3ncc4c(N5CC6CCC(C5)C6O)nc(OC[C@@]56CCCN5C[C@H](F)C6)nc4c3F)c12 (stereo partly drawn) [Example 60, (1R,5S,8R)-3-(7-(8-ethynyl-7-fluoro-3-hydroxynaphthalen-1-yl)-8-fluoro-2-(((2R,7aS)-2-fluorotetrahydro-1H-pyrrolizin-7a(5H)-yl)methoxy)pyrido[4,3-d]pyrimidin-4-yl)-3-azabicyclo[3.2.1]octan-8-ol]",< 5.60
12,"C#Cc1cccc2cc(O)cc(-c3ncc4c(N5CC6CCC(C5)C6O)nc(OC[C@@]56CCCN5C[C@H](F)C6)nc4c3F)c12 (stereo partly drawn) [Example 61, (1R,5S,8R)-3-(7-(8-ethynyl-3-hydroxynaphthalen-1-yl)-8-fluoro-2-(((2R, 7aS)-2-fluorotetrahydro-1H-pyrrolizin-7a(5H)-yl)methoxy)pyrido[4,3-d]pyrimidin-4-yl)-3-azabicyclo[3.2.1] octan-8-ol]",< 5.60
13,"C#Cc1c(F)ccc2cc(O)cc(-c3ncc4c(N5CC6CCC(C5)C6C#N)nc(OC[C@@]56CCCN5C[C@H](F)C6)nc4c3F)c12 (stereo partly drawn) [Example 62, (1R,5S,8S)-3-(7-(8-ethynyl-7-fluoro-3-hydroxynaphthalen-1-yl)-8-fluoro-2-(((2R, 7aS)-2-fluorotetrahydro-1H-pyrrolizin-7a(5H)-yl)methoxy)pyrido[4,3-d]pyrimidin-4-yl)-3-azabicyclo[3.2.1] octane-8-carbonitrile]",< 5.60
14,"C#Cc1c(F)ccc2cc(O)cc(-c3ncc4c(N5CC6CCC(C5)C6N)nc(OC[C@@]56CCCN5C[C@H](F)C6)nc4c3F)c12 (stereo partly drawn) [Example 63, 4-(4-((1R,5S,8R)-8-amino-3-azabicyclo [3.2.1]octan-3-yl)-8-fluoro-2-(((2R,7aS)-2-fluorotetrahydro-1H-pyrrolizin-7a(5H)-yl)methoxy)pyrido[4,3-d]pyrimidin-7-yl)-5-ethynyl-6-fluoronaphthalen-2-ol]",5.80
15,"C#Cc1c(F)ccc2cc(O)cc(-c3ncc4c(N5CC6CCC(C5)C6SC)nc(OC[C@@]56CCCN5C[C@H](F)C6)nc4c3F)c12 (stereo partly drawn) [Example 64, 5-ethynyl-6-fluoro-4-(8-fluoro-2-(((2R,7aS)-2-fluorotetrahydro-1H-pyrrolizin-7a(5H)-yl)methoxy)-4-((1R,5S, 8R)-8-(methylthio)-3-azabicyclo[3.2.1]octan-3-yl)pyrido[4,3-d]pyrimidin-7-yl) naphthalen-2-ol]",< 5.00
